From PubChem BioAssay AID248 (DTP/NCI, 2004)
Values joined by “and” are separate entries in the source; they are usually repeats but may differ in a detail not shown here. Equal values may be shown once. Inconclusive results and toxic doses are left out. Cut-off read from the data, not from the text of the source: active = T/C of 150% or more; inactive = T/C below 125%. Square brackets hold non-standard residues; d marks the D form. Peptide text beside a SMILES is read from it. * marks the point of attachment. ξ: configuration not given here. Cbz = O=C(OCc1ccccc1)*; ξD = NC(CC(=O)O)C(=O)O

Test system: L1210 leukemia ip in BDF1 mice, survival T/C
Experiment: NCI In Vivo Anticancer Drug Screen. Data for tumor model L1210 Leukemia (intraperitoneal) in B6D2F1 (BDF1) mice
Conditions: endpoint: mean survival time, higher = longer survival
Outline: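 Antitumor effect is assessed in tumor-bearing animals. Survival in the compound arm is compared with a vehicle-dosed control arm and expressed as their quotient.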

[1] = dose: 100.0 mg/kg/injection, schedule: Q01DX009 (ip), vehicle: saline with Tween-80
[2] = dose: 200.0 mg/kg/injection, schedule: Q01DX009 (ip), vehicle: saline with Tween-80
[3] = dose: 400.0 mg/kg/injection, schedule: Q01DX009 (ip), vehicle: saline with Tween-80
[4] = dose: 100.0 mg/kg/injection, schedule: Q01DX001 (ip), vehicle: saline with Tween-80
[5] = dose: 100.0 mg/kg/injection, schedule: Q04DX003 (ip), vehicle: saline with Tween-80
[6] = dose: 200.0 mg/kg/injection, schedule: Q01DX001 (ip), vehicle: saline with Tween-80
[7] = dose: 200.0 mg/kg/injection, schedule: Q04DX003 (ip), vehicle: saline with Tween-80
[8] = dose: 400.0 mg/kg/injection, schedule: Q01DX001 (ip), vehicle: saline with Tween-80
[9] = dose: 400.0 mg/kg/injection, schedule: Q04DX003 (ip), vehicle: saline with Tween-80
[10] = dose: 200.0 mg/kg/injection, schedule: Q01DX001 (ip), vehicle: saline
[11] = dose: 400.0 mg/kg/injection, schedule: Q01DX001 (ip), vehicle: saline
[12] = dose: 200.0 mg/kg/injection, schedule: Q04DX002 (ip), vehicle: Klucel (hydroxypropylcellulose) (HPC)
[13] = dose: 100.0 mg/kg/injection, schedule: Q04DX003 (ip), vehicle: Klucel (hydroxypropylcellulose) (HPC)
[14] = dose: 200.0 mg/kg/injection, schedule: Q04DX003 (ip), vehicle: Klucel (hydroxypropylcellulose) (HPC)
[15] = dose: 400.0 mg/kg/injection, schedule: Q04DX003 (ip), vehicle: Klucel (hydroxypropylcellulose) (HPC)
[16] = dose: 100.0 mg/kg/injection, schedule: Q01DX009 (ip), vehicle: Klucel (hydroxypropylcellulose) (HPC)
[17] = dose: 200.0 mg/kg/injection, schedule: Q01DX009 (ip), vehicle: Klucel (hydroxypropylcellulose) (HPC)
[18] = dose: 100.0 mg/kg/injection, schedule: Q01DX001 (ip), vehicle: saline

Measured: T/C

CC1(C)N=C(N)N=C(N)N1c1ccc(CNC(=O)Nc2ccc(S(=O)(=O)F)cc2)c(Cl)c1
inactive: dose: 45.0 mg/kg/injection, schedule: Q01DX009 (ip), vehicle: saline 111 % of control | dose: 67.0 mg/kg/injection, schedule: Q01DX009 (ip), vehicle: saline 120 % of control

CCOC(=O)/C=C\COC(=O)CC#N
inactive: [1] 102 % of control | [2] 107 % of control | [3] 98 % of control

CN(C)C(=O)N/N=C/c1ccc(Cl)cc1
inactive: [1] 95 % of control | [2] 92 % of control

COc1ccc([N+](=O)[O-])cc1NS(=O)(=O)c1cccc([N+](=O)[O-])c1
inactive: [4] 95 % of control | [1] 89 % of control and 92 % of control | dose: 100.0 mg/kg/injection, schedule: Q04DX002 (ip), vehicle: saline with Tween-80 97 % of control and 101 % of control | [5] 97 % of control | [6] 91 % of control | [2] 92 % of control | dose: 200.0 mg/kg/injection, schedule: Q04DX002 (ip), vehicle: saline with Tween-80 95 % of control and 97 % of control | [7] 97 % of control | [8] 91 % of control | [3] 106 % of control | dose: 400.0 mg/kg/injection, schedule: Q04DX002 (ip), vehicle: saline with Tween-80 94 % of control and 101 % of control | [9] 90 % of control

O=C(NCCNCc1ccccc1)c1ccccc1
inactive: dose: 25.0 mg/kg/injection, schedule: Q01DX009 (ip), vehicle: water 97 % of control | dose: 25.0 mg/kg/injection, schedule: Q04DX003 (ip), vehicle: water 96 % of control | dose: 50.0 mg/kg/injection, schedule: Q01DX009 (ip), vehicle: water 98 % of control | dose: 50.0 mg/kg/injection, schedule: Q04DX003 (ip), vehicle: water 107 % of control | [5] 108 % of control | dose: 100.0 mg/kg/injection, schedule: Q04DX003 (ip), vehicle: water 92 % of control

C/C(=N/NC(N)=S)c1ccco1
inactive: [10] 119 % of control | [11] 102 % of control

N#Cc1c(C#N)c(N)n(N)c1N
inactive: [12] 114 % of control

CCOC(=O)c1[nH]c(-c2ccccc2)cc1-c1ccccc1
inactive: [13] 118 % of control | [14] 108 % of control | [15] 108 % of control

CCC(=O)CC(C)CC (configuration not stated)
inactive: dose: 50.0 mg/kg/injection, schedule: Q01DX001 (ip), vehicle: carboxymethylcellulose (CMC) 94 % of control | dose: 100.0 mg/kg/injection, schedule: Q01DX001 (ip), vehicle: carboxymethylcellulose (CMC) 102 % of control | dose: 200.0 mg/kg/injection, schedule: Q01DX001 (ip), vehicle: carboxymethylcellulose (CMC) 91 % of control | dose: 400.0 mg/kg/injection, schedule: Q01DX001 (ip), vehicle: carboxymethylcellulose (CMC) 102 % of control

O=C(O)/C(Br)=C/C(=O)c1ccccc1
inactive: dose: 75.0 mg/kg/injection, schedule: Q01DX001 (ip), vehicle: steriod suspending solution 106 % of control | dose: 300.0 mg/kg/injection, schedule: Q01DX001 (ip), vehicle: steriod suspending solution 109 % of control

c1ccc(NNC(c2ccccc2)(c2ccccc2)c2ccccc2)cc1
inactive: [16] 101 % of control | [13] 101 % of control | [17] 98 % of control | [14] 95 % of control | dose: 400.0 mg/kg/injection, schedule: Q01DX009 (ip), vehicle: Klucel (hydroxypropylcellulose) (HPC) 92 % of control | [15] 95 % of control

Cc1cc(C(C)(CC(C)C)c2ccc(O)c(C)c2)ccc1O
inactive: dose: 25.0 mg/kg/injection, schedule: Q01DX009 (ip), vehicle: gum acacia 96 % of control | dose: 50.0 mg/kg/injection, schedule: Q01DX009 (ip), vehicle: gum acacia 98 % of control | dose: 100.0 mg/kg/injection, schedule: Q01DX009 (ip), vehicle: gum acacia 93 % of control and 89 % of control | dose: 100.0 mg/kg/injection, schedule: Q04DX003 (ip), vehicle: gum acacia 97 % of control | dose: 200.0 mg/kg/injection, schedule: Q04DX003 (ip), vehicle: gum acacia 93 % of control | dose: 400.0 mg/kg/injection, schedule: Q04DX003 (ip), vehicle: gum acacia 90 % of control

CCSC1C(OC(C)=O)C(C(CI)OC(C)=O)OC1n1cc(C)c(=O)[nH]c1=O (configuration not stated)
inactive: dose: 100.0 mg/kg/injection, schedule: Q01DX005 (ip), vehicle: saline 93 % of control | dose: 200.0 mg/kg/injection, schedule: Q01DX005 (ip), vehicle: saline 98 % of control

c1ccc2c(c1)-c1cccc3c1c-2cc1ccccc13
inactive: dose: 100.0 mg/kg/injection, schedule: Q01DX001 (ip), vehicle: other 104 % of control | dose: 200.0 mg/kg/injection, schedule: Q01DX001 (ip), vehicle: other 101 % of control | dose: 400.0 mg/kg/injection, schedule: Q01DX001 (ip), vehicle: other 95 % of control

COc1ccc(CC(C(=O)O)c2ccccc2C(=O)O)cc1OC (configuration not stated)
inactive: [18] 101 % of control | [10] 97 % of control | [11] 97 % of control

O=C(O)CC(NC(=O)CNC(=O)OCc1ccccc1)C(=O)O (stereo not drawn) (Cbz-Gly-[ξD]-OH)
inactive: dose: 50.0 mg/kg/injection, schedule: Q01DX009 (ip), vehicle: Klucel (hydroxypropylcellulose) (HPC) 93 % of control | dose: 50.0 mg/kg/injection, schedule: Q04DX003 (ip), vehicle: Klucel (hydroxypropylcellulose) (HPC) 94 % of control | [16] 93 % of control | [13] 98 % of control | [17] 95 % of control | [14] 94 % of control

O=C(Nc1cccc2ccccc12)c1cccc([N+](=O)[O-])c1C(=O)O
inactive: dose: 100.0 mg/kg/injection, schedule: Q04DX002 (ip), vehicle: Klucel (hydroxypropylcellulose) (HPC) 99 % of control | [12] 92 % of control | dose: 400.0 mg/kg/injection, schedule: Q04DX002 (ip), vehicle: Klucel (hydroxypropylcellulose) (HPC) 96 % of control

CCOC(=O)Cc1ccc2[nH]c(C(=O)OCC)cc(=O)c2c1
inactive: [18] 95 % of control | [10] 90 % of control | [11] 95 % of control

Oc1cc(-c2ccccc2)c(-c2ccccc2)c(-c2ccccc2)c1-c1ccccc1
inactive: [4] 100 % of control | [6] 90 % of control | [8] 88 % of control

O=C1CCCCC1(O)C[N+](=O)[O-] (configuration not stated)
inactive: dose: 75.0 mg/kg/injection, schedule: Q01DX001 (ip), vehicle: carboxymethylcellulose (CMC) 96 % of control

CCC(C)NCCOC(=O)C(c1ccccc1)c1ccccc1 (configuration not stated)
inactive: dose: 75.0 mg/kg/injection, schedule: Q01DX001 (ip), vehicle: other 93 % of control

C=CC1C(C(=O)Nc2ccccc2)CN1C (configuration not stated)
inactive: [5] 107 % of control | [7] 107 % of control | [9] 116 % of control
